Measurements as given in ChEMBL document CHEMBL1139636, “QSAR analysis of thiazole benzenesulfonamide substituted 3-pyridylethanolamines as beta3-adrenergic receptor agonist” (Bioorg Med Chem Lett, 2005).

biological target: Beta-3 adrenergic receptor (Homo sapiens, UniProt P13945); experiment: Effective concentration to stimulate cAMP production in chinese hamster ovary cells expressing cloned human beta-3-adrenergic receptor; type: functional, cell-based, Cricetulus griseus
Sequence (P13945 whole entry): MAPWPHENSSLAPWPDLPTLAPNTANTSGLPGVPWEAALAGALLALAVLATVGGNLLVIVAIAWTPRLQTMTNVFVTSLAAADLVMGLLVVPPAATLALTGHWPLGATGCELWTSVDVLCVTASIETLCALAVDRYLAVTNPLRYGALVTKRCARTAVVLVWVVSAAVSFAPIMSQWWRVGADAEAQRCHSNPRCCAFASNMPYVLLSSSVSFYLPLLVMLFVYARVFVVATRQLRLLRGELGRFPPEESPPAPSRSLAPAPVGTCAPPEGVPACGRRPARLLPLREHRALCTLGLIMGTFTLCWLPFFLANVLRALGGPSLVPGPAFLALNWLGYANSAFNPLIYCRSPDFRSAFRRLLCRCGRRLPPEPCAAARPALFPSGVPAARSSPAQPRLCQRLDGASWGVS

Row | EC50 | Structure (SMILES)
1 | 2.7 nM | O=S(=O)(Nc1ccc(CCNC[C@H](O)c2ccccc2)cc1)c1ccc(Cc2nc(-c3ccc4ncccc4c3)cs2)cc1
2 | 10 nM | CCCCCCCCc1csc(Cc2ccc(S(=O)(=O)Nc3ccc(CCNC[C@H](O)c4ccccc4)cc3)cc2)n1
3 | 33 nM | O=S(=O)(Nc1ccc(CCNC[C@H](O)c2ccccc2)cc1)c1ccc(Cc2nc(CCc3ccccc3)cs2)cc1
4 | 26 nM | O=S(=O)(Nc1ccc(CCNC[C@H](O)c2ccccc2)cc1)c1ccc(Cc2nc(CCC3CCCC3)cs2)cc1
5 | 9.5 nM | O=S(=O)(Nc1ccc(CCNC[C@H](O)c2ccccc2)cc1)c1ccc(Cc2nc(-c3ccc(F)cc3)cs2)cc1
6 | 5 nM | O=S(=O)(Nc1ccc(CCNC[C@H](O)c2ccccc2)cc1)c1ccc(Cc2nc(-c3cc4ccccc4o3)cs2)cc1
7 | 7.1 nM | O=S(=O)(Nc1ccc(CCNC[C@H](O)c2ccccc2)cc1)c1ccc(Cc2nc(-c3ccc(F)c(F)c3)cs2)cc1
8 | 9.1 nM | O=S(=O)(Nc1ccc(CCNC[C@H](O)c2ccccc2)cc1)c1ccc(Cc2nc(-c3c[nH]c4ccccc34)cs2)cc1
9 | 6.2 nM | O=S(=O)(Nc1ccc(CCNC[C@H](O)c2ccccc2)cc1)c1ccc(Cc2nc(Cc3ccc(F)cc3)cs2)cc1
10 | 51 nM | CC/C=C/CC/C=C/c1csc(Cc2ccc(S(=O)(=O)Nc3ccc(CCNC[C@H](O)c4ccccc4)cc3)cc2)n1
11 | 5.8 nM | O=S(=O)(Nc1ccc(CCNC[C@H](O)c2ccccc2)cc1)c1ccc(Cc2nc(-c3cc4ccccc4s3)cs2)cc1
12 | 7.3 nM | O=S(=O)(Nc1ccc(CCNC[C@H](O)c2ccccc2)cc1)c1ccc(Cc2nc(-c3cnc4ccccc4c3)cs2)cc1
13 | 12 nM | O=S(=O)(Nc1ccc(CCNC[C@H](O)c2ccccc2)cc1)c1ccc(CCc2nc(Cc3ccc4ccccc4c3)cs2)cc1
14 | 40 nM | O=S(=O)(Nc1ccc(CCNC[C@H](O)c2ccccc2)cc1)c1ccc(Cc2nc(-c3cccnc3)cs2)cc1
15 | 1.2 nM | CCCCCCc1ccc(-c2csc(Cc3ccc(S(=O)(=O)Nc4ccc(CCNC[C@H](O)c5ccccc5)cc4)cc3)n2)cc1
16 | 2.4 nM | CC(C)(C)c1ccc(-c2csc(Cc3ccc(S(=O)(=O)Nc4ccc(CCNC[C@H](O)c5ccccc5)cc4)cc3)n2)cc1
17 | 45 nM | O=S(=O)(Nc1ccc(CCNC[C@H](O)c2ccccc2)cc1)c1ccc(Cc2nc(-c3ccc(O)cc3)cs2)cc1
18 | 50 nM | CC(=O)NCCCCCc1csc(Cc2ccc(S(=O)(=O)Nc3ccc(CCNC[C@H](O)c4ccccc4)cc3)cc2)n1
19 | 22 nM | O=S(=O)(Nc1ccc(CCNC[C@H](O)c2ccccc2)cc1)c1ccc(Cc2nc(-c3ccccn3)cs2)cc1
20 | 2 nM | O=S(=O)(Nc1ccc(CCNC[C@H](O)c2ccccc2)cc1)c1ccc(Cc2nc(-c3ccc4ccccc4c3)cs2)cc1
21 | 45 nM | CC(=O)Nc1ccc(-c2csc(Cc3ccc(S(=O)(=O)Nc4ccc(CCNC[C@H](O)c5ccccc5)cc4)cc3)n2)cc1
22 | 9.8 nM | CCCCCCCCc1csc(CCc2ccc(S(=O)(=O)Nc3ccc(CCNC[C@H](O)c4ccccc4)cc3)cc2)n1
23 | 33 nM | O=S(=O)(Nc1ccc(CCNC[C@H](O)c2ccccc2)cc1)c1ccc(Cc2nc(Cc3ccc4ccccc4c3)cs2)cc1
